In patent US12325708B2, “Adenosine 2 receptor antagonists” (Nektar Therapeutics, priority 2019, dated 2025):
≈ marks a conversion by molar mass, not a printed value. Read-outs that look alike come from different tables or passages of the source.

Assays:
[1] = Plasma pharmacokinetic parameters following intravenous (IV) or oral (PO) administration in rats; format: in vivo, Sprague-Dawley rats; conditions: rat; for Vd: read-out: Vss obs; for AUC / bioavailability: oral; for Total clearance as % liver blood flow: IV; for Plasma concentrations post 8 hr: IV 0.5 mg/kg and PO 2.5 mg/kg; for F: PO 2.5 mg/kg vs IV 0.5 mg/kg
Procedure, shortened: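 Fasted male Sprague-Dawley rats (230-250 g, n=2/group), dosed 0.5 mg/kg IV (jugular) or 2.5 mg/kg PO gavage in water. Plasma sampled 2–1440 min, analyzed by LC-MS/MS; non-compartmental analysis with nominal doses/times gave AUC, Cmax, Tmax, CL, Vss, MRTlast, F.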

[2] = Plasma pharmacokinetic parameters of Compound 1 in mice; format: in vivo; conditions: mouse, PO 30 mg/kg
Source text: (§1) Pharmacokinetic parameters were further estimated in vivo after IV or PO administration of Compound 1 in mice and dogs with the results provided in Table 4 below.

[3] = Plasma pharmacokinetic parameters of Compound 1 in dogs; format: in vivo; conditions: dog
Source text: as §1

[4] = Permeability Caco-2 Papp and efflux ratio; format: in vitro ADME; conditions: human
Solubility = format: physicochemical
[5] = Plasma protein binding (PPB), mouse; format: in vitro ADME; conditions: read-out: Plasma protein binding (PPB) (fu)
[6] = Plasma protein binding (PPB), dog; format: in vitro ADME; conditions: read-out: Plasma protein binding (PPB) (fu)
mouse CT-26 cells = test: Antitumor activity in CT26 subcutaneous tumor model in Balb/c mice; format: in vivo; conditions: day 13 vs vehicle
Method: Mice used were ˜ 6-8 week-old female Balb/c mice subcutaneously inoculated with 2×10^6 mouse CT-26 cells. […] The mice were divided into six treatment groups as follows: vehicle (qdx9) PO+IP, Compound 1 (10 mg/kg, qdx9)+an exemplary anti-mouse PD1 (CD279) antibody (BioXCell) (200 μg/mouse, q2dx4); Compound 1 (30 mg/kg, qdx9)+anti-PD1 antibody (200 μg/mouse, q2dx4), Compound 1 (100 mg/kg)+anti-PD1 antibody (200 μg/mouse, q2dx4), anti-PD1 antibody (200 μg/mouse, q2dx4), or preladenant (30 mg/kg, qdx9)+anti-PD1 antibody (200 μg/mouse, q2dx4). Compound 1 and preladenant were administered orally. The anti-PD1 antibody was administered IP. Body weight was measured daily. Tumor growth of the CT26 cells was monitored three times per week by measuring the tumor volume size using a caliper with the results shown in FIG. 5.

[7] = male, Sprague-Dawley, plasma, intravenous, 0.5 mg/kg, Table 2 summary of Example 27, values marked 1 are the average of experiments
[8] = male, Sprague-Dawley, plasma, iv, 0.5 mg/kg, IV 0.5 mg/kg, injectable water
[9] = male, Sprague-Dawley, plasma, 2.5 mg/kg, Table 2 summary of Example 27, values marked 1 are the average of experiments
[10] = male, Sprague-Dawley, plasma, po, 2.5 mg/kg, PO 2.5 mg/kg via gavage, injectable water
[11] = male, Sprague-Dawley, plasma, po, 2.5 mg/kg, PO 2.5 mg/kg via gavage, injectable water, read-out: Cmax
[12] = male, Sprague-Dawley, plasma, po, 2.5 mg/kg, PO 2.5 mg/kg via gavage, injectable water, read-out: Tmax
[13] = IV 0.5 mg/kg, injectable water, listed as Compound 1 (#1), 0.5 mg/kg
[14] = IV 0.5 mg/kg, injectable water, listed as Compound 1 (#2), 0.5 mg/kg
[15] = PO 2.5 mg/kg via gavage, injectable water, listed as Compound 1 (#1), 2.5 mg/kg
[16] = PO 2.5 mg/kg via gavage, injectable water, listed as Compound 1 (#2), 2.5 mg/kg
[17] = IV 0.5 mg/kg, injectable water, listed as Compound 4 (#2), 0.5 mg/kg
[18] = PO 2.5 mg/kg via gavage, injectable water, listed as Compound 4 (#2), 2.5 mg/kg

COCCOc1ccc(N2CCN(CCN(C)c3cc4nc(-c5ncco5)nn4c(N)n3)CC2)cc1 [Compound 1, N^7-(2-{4-[4-(2-methoxyethoxy)phenyl]piperazin-1-yl}ethyl)-N^7-methyl-2-(1,3-oxazol-2-yl)[1,2,4]triazolo[1,5-c]pyrimidine-5,7-diamine]
clearance [1, 7]: 31 mL/min/kg | AUC(0-inf) [1, 8]: 340 ng·h/mL | AUC(0-t) [1, 8]: 335 ng·h/mL | MRT last [1, 8]: 1.41 to 1.45 h | clearance [1, 8]: 24.6 to 36.1 mL/min/kg | Cmax ([1]; male, Sprague-Dawley, plasma, iv, 0.5 mg/kg, IV 0.5 mg/kg, injectable water, read-out: Cmax): 311 ng/mL | Tmax ([1]; male, Sprague-Dawley, plasma, iv, 0.5 mg/kg, IV 0.5 mg/kg, injectable water, read-out: Tmax): 2 min | Vd [1, 8]: 2.17 to 3.44 L/kg | AUC [1, 9]: 969 ng·h/mL | bioavailability [1, 9]: 71% | AUC(0-inf) [1, 10]: 1280 ng·h/mL | AUC(0-t) [1, 10]: 1220 ng·h/mL | Cmax [1, 11]: 242 to 367 ng/mL | Tmax [1, 12]: 45 to 60 min | Total clearance as % liver blood flow [1]: 40-60 % liver blood flow | Plasma concentrations post 8 hr [1]: below the limit of quantitation | AUCinf [1, 13]: 233 ng·h/mL | AUClast [1, 13]: 228 ng·h/mL | CL [1, 13]: 36.1 mL/min/kg | Cmax [1, 13]: 207 ng/mL | MRTlast [1, 13]: 1.41 h | Vss obs [1, 13]: 3.44 L/kg | CL [1, 14]: 24.6 mL/min/kg | MRTlast [1, 14]: 1.45 h | Vss obs [1, 14]: 2.17 L/kg | AUCinf [1, 15]: 777 ng·h/mL | AUClast [1, 15]: 718 ng·h/mL | Cmax [1, 15]: 242 ng/mL | Tmax [1, 15]: 45 min | Cmax [1, 16]: 367 ng/mL | Tmax [1, 16]: 60 min | F ([1]; listed as Compound 1 (#1)): 66.8% | F ([1]; listed as Compound 1 (#2)): 75.5% | AUC(0-inf) [2]: 5760 ng·h/mL | F ([3]; PO 1&10 mg/kg vs IV 0.2 mg/kg): >100% | clearance ([3]; plasma, IV 0.2 mg/kg): 12 mL/min/kg | half-life ([3]; plasma, IV 0.2 mg/kg): 360 min | Vd ([3]; plasma, IV 0.2 mg/kg, read-out: Vss): 5.2 L/kg | AUC(0-inf) ([3]; plasma, PO 1 mg/kg): 2020 ng·h/mL | AUC(0-inf) ([3]; plasma, PO 10 mg/kg): 17900 ng·h/mL | Papp [4]: 14.5 ×10⁻⁶ cm/s | efflux ratio ([4]; read-out: Efflux Ratio (ER)): 1.6 | solubility (Solubility; pH ~3): ~5000 µM (≈ 2470 µg/mL) | solubility (Solubility; pH ~7): 20 to 40 µM (≈ 9.87 to 19.7 µg/mL) | fraction unbound [5]: 0.19 | fraction unbound [6]: 0.43 | % TGI (mouse CT-26 cells; 10 mg/kg qdx9 PO + anti-PD1 antibody 200 μg/mouse q2dx4 IP): 34% | % TGI (mouse CT-26 cells; 30 mg/kg qdx9 PO + anti-PD1 antibody 200 μg/mouse q2dx4 IP): 41^1% | % TGI (mouse CT-26 cells; 100 mg/kg PO + anti-PD1 antibody 200 μg/mouse q2dx4 IP): 47^2%

COCCOc1cnc(N2CCN(CCN(C)c3cc4nc(-c5ncco5)nn4c(N)n3)CC2)c(F)c1 [Compound 4, N^7-(2-{4-[3-fluoro-5-(2-methoxyethoxy)pyridin-2-yl]piperazin-1-yl}ethyl)-N^7-methyl-2-(1,3-oxazol-2-yl)[1,2,4]triazolo[1,5-c]pyrimidine-5,7-diamine]
clearance [1, 7]: 34 mL/min/kg | AUC(0-inf) [1, 8]: 251 ng·h/mL | AUC(0-t) [1, 8]: 249 ng·h/mL | MRT last [1, 8]: 0.89 h | clearance [1, 8]: 26.8 to 33.6 mL/min/kg | Vd [1, 8]: 1.93 L/kg | AUC [1, 9]: 898 ng·h/mL | bioavailability [1, 9]: 78% | AUC(0-inf) [1, 10]: 978 ng·h/mL | AUC(0-t) [1, 10]: 898 ng·h/mL | MRT last [1, 10]: 2.55 h | Cmax [1, 11]: 231 ng/mL | Tmax [1, 12]: 30 to 45 min | Total clearance as % liver blood flow [1]: 45-56 % liver blood flow | Plasma concentrations post 8 hr [1]: below the limit of quantitation | CL ([1]; IV 0.5 mg/kg, injectable water, listed as Compound 4 (#1), 0.5 mg/kg): 33.6 mL/min/kg | AUCinf [1, 17]: 312 ng·h/mL | AUClast [1, 17]: 310 ng·h/mL | CL [1, 17]: 26.8 mL/min/kg | MRTlast [1, 17]: 0.914 h | Tmax ([1]; PO 2.5 mg/kg via gavage, injectable water, listed as Compound 4 (#1), 2.5 mg/kg): 45 min | AUCinf [1, 18]: 707 ng·h/mL | AUClast [1, 18]: 662 ng·h/mL | Cmax [1, 18]: 172 ng/mL | Tmax [1, 18]: 30 min | F ([1]; listed as Compound 4 (#1)): 77.8% | F ([1]; listed as Compound 4 (#2)): 45.4%
